{"source": "patent US20150265656A1", "about": "“HUMAN ENDOCRINE PROGENITORS FROM ADULT PANCREATIC TISSUE” (THE JOHNS HOPKINS UNIVERSITY, priority 2012, published 2015)", "key": {"[1]": {"tested_on": "NGN3+ cells in cultured adult human pancreatic tissue", "assay": "% NGN3+ nuclei/cells in cultured pancreatic tissue (immunostaining)", "format": "cell-based", "protocol": "Human cadaveric pancreas tissue that had been enzymatically digested and subjected to density centrifugation (57) was received 2-3 days post mortem. In all experiments, stated replication refers to the number of cultures from individual organ donors unless otherwise defined. Islet purity varied between preparations from <10% to >90%. Pancreatic tissue was resuspended in 10 ml Miami Media 1A (Mediatech) supplemented with freshly prepared 0.01 g/L glutathione and cultured in low adhesion dishes at 37° C. for 4 days. Media was replaced every 2-3 days. Inhibition of γ-secretase was carried out by daily addition of N—[N-(3,5-Difluorophenacetyl-L-alanyl)]-S-phenylglycine t-butyl ester (DAPT, Tocris Biosciences) or 7-Amino-4-chloro-3-methoxyisocoumarin (JLK6, EMD Biosceinces). JAG-1 (ANASPEC), a 17-residue polypeptide corresponding to amino acids 188-204 of the Jagged-1 Notch ligand (58) and a negative control polypeptide comprised of scrambled JAG-1 amino acids were used at 47 μM. A second Notch ligand, Delta-like ligand 4 (D114)(R&D Systems) was used at 500 ng/ml. Inhibition of proteasome degradation was carried out with N-[(Phenylmethoxy)carbonyl]-L-leucyl-N-[(1S)-1-formyl-3-methylbutyl]-L-leucinamide (MG132, Tocris Bioscience) and (2R,3S,4R)-3-Hydroxy-2-[(1S)-1-hydroxy-2-methylpropyl]-4-methyl-5-oxo-2-pyrrolidinecarboxy-N-acetyl-L cysteine thioester (clasto-lactacystin beta-lactone, Tocris Bioscience). Inhibition of EGF receptor kinase was carried out with N-(3-Chlorophenyl)-6,7-dimethoxy-4-quinazolinanine hydrochloride (AG1478, Tocris Bioscience) and with N-(3-Chlorophenyl)-6,7-dimethoxy-4-quinazolinanine hydrochloride (Erlotinib, Cayman Chemical). STAT3 activation was blocked with a cell-permeable analog of the STAT3-SH2 domain-binding phosphopeptide (PpYLKTK-mts, EMD Biosciences).\nTissues stained for NGN3 expression were sectioned and stained as soon as possible after harvest. Freshly sectioned 5-8 micron frozen sections of islet preparation tissue were fixed for 5 min. in 4% paraformaldehyde (PFA) prepared in phosphate buffered saline (PBS), quenched for 5 min in 50 mM glycine in PBS then blocked in 5% donkey serum, 1% BSA in PBS for 30 min. at room temperature. 0.1 to 0.2% Triton-X100 was included for cytoplasmic and nuclear antigens, respectively. Primary antibodies were diluted in blocking buffer; mouse anti-CD133/1 (IgG1) and CD133/2 (IgG2b) unconjugated and conjugated to phycoerythrin (Miltenyi Biotec), mouse anti-cytokeratin 19 (CK19, Chemicon), guinea pig anti-swine insulin (Dako), rabbit anti-CPEP (LINCO), mouse anti-GLU (R&D Systems), goat anti-PDX1 (gift from Chris Wright), mouse anti-CgA (Dako); goat anti-amylase (AMY, Santa Cruz), mouse anti-NGN3 (Developmental Studies Hybridoma Bank, Iowa City, Iowa, hybridoma supernatant), rabbit anti-cleaved caspase-3 (Cell Signaling Technology), rabbit Ki67 (abcam), mouse anti-human E-cadherin (Invitrogen). BrdU and EdU detection were by kit from BD Bioscience and Invitrogen, respectively. Quantitative analysis of protein expression on frozen sections was carried out by imaging >800 nuclei in randomly selected fields for each treatment group. For analysis of CD133+ cells immediately after preparative fluorescent activated cell sorting (FACS), cells were immobilized, fixed and quenched directly on glass slides using a cytospin. For identification and quantification cells within pancospheres, spheres were fixed and stained similarly to tissue sections except all incubations and washes were overnight at 4° C. Stained pancospheres were mounted on coverslipped glass slides. For quantitative analyses, unbiased stereology (Stereo Investigator software) was used to estimate number of nuclei per pancosphere. Sectioned tissue and pancospheres were imaged by confocal microscopy through the Z-axis in a series of 1 micron optical sections using sequential acquisition mode. […] Mean % CPEP, % GLU and % CgA were calculated from a total of 17 pancospheres."}, "HES1 mRNA": {"tested_on": "HES1 mRNA", "assay": "HES1 mRNA level in cultured pancreatic tissue (quantitative RT-PCR)", "format": "cell-based, human", "conditions": "4 days of culture", "protocol": "(§1) Human cadaveric pancreas tissue that had been enzymatically digested and subjected to density centrifugation (57) was received 2-3 days post mortem. In all experiments, stated replication refers to the number of cultures from individual organ donors unless otherwise defined. Islet purity varied between preparations from <10% to >90%. Pancreatic tissue was resuspended in 10 ml Miami Media 1A (Mediatech) supplemented with freshly prepared 0.01 g/L glutathione and cultured in low adhesion dishes at 37° C. for 4 days. Media was replaced every 2-3 days. […]\n(§2) Human adult and fetal pancreas RNA was commercially prepared. […] Levels of HES 1, PTF1A, PDX1, NGN3 and CYCLOPHILLIN A were determined by using Taqman® gene expression assays Hs00172878_m1, Hs00603586_g1, Hs00426216_m1, Hs00360700_g1 and Hs99999904_m1, respectively. Mean levels (6 readings/sample) of genes of interest were normalized to mean levels of CYCLOPHILLIN A. MicroRNAs hsa-mir-15a, hsa-mir-15b, hsa-mir-16 and hsa-mir-195 levels were measured using sequence specific reverse transcriptase primers and TaqMan® detection reagents (Applied Biosystems). Mean levels (6 readings/sample) of miRNAs were normalized to mean levels of 18S rRNA (Applied Biosystems Ribosomal RNA Reagent). Significance of RTPCR data was determined by ANOVA with Bonferroni-Holm Post hoc testing."}, "PTF1A mRNA": {"tested_on": "PTF1A mRNA", "assay": "PTF1A mRNA level in cultured pancreatic tissue (quantitative RT-PCR)", "format": "cell-based, human", "conditions": "4 days of culture", "protocol": "as §1, §2"}, "NGN3 mRNA": {"tested_on": "NGN3 mRNA", "assay": "NGN3 mRNA level in cultured pancreatic tissue (quantitative RT-PCR)", "format": "cell-based, human", "conditions": "4 days of culture", "protocol": "as §1, §2"}, "[2]": {"tested_on": "pancospheres from CD133+/NGN3+ cells", "assay": "Pancosphere endocrine maturation, hormone-expressing cells", "format": "cell-based, human", "conditions": "maturation media with 10 μM MPA", "protocol": "To form pancospheres, CD133+ cells were resuspended at 2×10^5 cells/ml in HuES media [Knockout DMEM (Invitrogen), 10% Knockout Serum Replacement (Invitrogen), 10% Albumax, 10 ng/ml fibroblast growth factor 2 (FGF2), 1×Na pyruvate, and 1× non-essential amino acids] conditioned by overnight incubation on human SDEC cells (59, 60) and 1-2% Matrigel. Media was supplemented every 3-4 days for up to 21 days. Media was then changed to Maturation media [RPMI 1640, 0.5% BSA, 10 mM nicotinamide, 50 ng/ml human insulin like growth factor II (IGF II, R&D Systems)] for 7 days with addition of fresh nicotinamide and IGF II every 2 days without media change. IGF II was then slowly withdrawn by subsequent 50% media changes. […]\nTissues stained for NGN3 expression were sectioned and stained as soon as possible after harvest. […] Quantitative analysis of protein expression on frozen sections was carried out by imaging >800 nuclei in randomly selected fields for each treatment group. […] For identification and quantification cells within pancospheres, spheres were fixed and stained similarly to tissue sections except all incubations and washes were overnight at 4° C. […] For quantitative analyses, unbiased stereology (Stereo Investigator software) was used to estimate number of nuclei per pancosphere. […] Mean % CPEP, % GLU and % CgA were calculated from a total of 17 pancospheres."}}, "note": "Peptide text beside a SMILES is read from it. * marks the point of attachment. Cbz = O=C(OCc1ccccc1)*", "data": [{"molecule": "COc1cc2ncnc(Nc3cccc(Cl)c3)c2cc1OC.Cl", "note": "[AG1478, N-(3-Chlorophenyl)-6,7-dimethoxy-4-quinazolinanine hydrochloride]", "values": [{"measurement": "% NGN3+ cells, % of carrier control", "setting": "[1]; 3 nM AG1478, 4 days", "result": "69.1%±7.3"}, {"measurement": "% NGN3+ cells, % of carrier control", "setting": "[1]; 30 nM AG1478, 4 days", "result": "62.3%±8.2"}]}, {"molecule": "C[C@H](NC(=O)Cc1cc(F)cc(F)c1)C(=O)N[C@H](C(=O)OC(C)(C)C)c1ccccc1", "note": "[DAPT, N—[N-(3,5-Difluorophenacetyl-L-alanyl)]-S-phenylglycine t-butyl ester]", "values": [{"measurement": "level of HES1 mRNA, % of carrier control", "setting": "HES1 mRNA; 2 μM DAPT", "result": "63.0%±3.3"}, {"measurement": "level of HES1 mRNA, % of carrier control", "setting": "HES1 mRNA; 20 μM DAPT", "result": "55.4%±1.5"}, {"measurement": "% of cells expressing NGN3 protein, % of carrier control", "setting": "[1]; 2 μM DAPT, 4 days", "result": "124%±1.1"}, {"measurement": "% of cells expressing NGN3 protein, % of carrier control", "setting": "[1]; 20 μM DAPT, 4 days", "result": "152.0%±2.2"}, {"measurement": "effect on the D114-induced decrease of % NGN3+ cells", "setting": "[1]; DAPT together with D114", "result": "blocked"}, {"measurement": "level of PTF1A mRNA, % of carrier control", "setting": "PTF1A mRNA; 2 μM DAPT", "result": "331.2%±10.8"}, {"measurement": "level of PTF1A mRNA, % of carrier control", "setting": "PTF1A mRNA; 20 μM DAPT", "result": "391.6%±28.8"}, {"measurement": "level of NGN3 mRNA, % of carrier control", "setting": "NGN3 mRNA; 2 μM DAPT", "result": "927.4%±52.6"}, {"measurement": "level of NGN3 mRNA, % of carrier control", "setting": "NGN3 mRNA; 20 μM DAPT", "result": "1886.3%±102.4"}]}, {"molecule": "C#Cc1cccc(Nc2ncnc3cc(OCCOC)c(OCCOC)cc23)c1", "note": "[Erlotinib]", "values": [{"measurement": "% NGN3+ cells", "setting": "[1]; 0.25 μM Erlotinib, n=1, data not shown", "result": "31.0±4.8"}]}, {"molecule": "COc1oc(=O)c2cc(N)ccc2c1Cl", "note": "[JLK6, 7-Amino-4-chloro-3-methoxyisocoumarin]", "values": [{"measurement": "effect on % of cells expressing NGN3 protein", "setting": "[1]; JLK6 treatment, 4 days", "result": "No significant effect"}]}, {"molecule": "CC(C)C[C@@H](C=O)NC(=O)[C@H](CC(C)C)NC(=O)[C@H](CC(C)C)NC(=O)OCc1ccccc1", "note": "[MG132, N-[(Phenylmethoxy)carbonyl]-L-leucyl-N-[(1S)-1-formyl-3-methylbutyl]-L-leucinamide] (Cbz-Leu-Leu-Leu-aldehyde)", "values": [{"measurement": "% NGN3+ cells, % of carrier control", "setting": "[1]; 1 μM MG132, 4 days", "result": "182.8%±14.9"}, {"measurement": "% NGN3+ cells, % of carrier control", "setting": "[1]; 10 μM MG132, 4 days", "result": "478.8%±33.6"}, {"measurement": "% NGN3+ cells, % of carrier control", "setting": "[1]; 20 μM MG132, 4 days", "result": "533.6%±28.9"}]}, {"molecule": "COc1c(C)c2c(c(O)c1C/C=C(\\C)CCC(=O)O)C(=O)OC2", "note": "[MPA, Mycophenolic acid]", "values": [{"measurement": "% cells GLU+ in pancospheres", "setting": "[2]; carrier control 0.58%±0.2, P>0.05", "result": "1.1%±0.23"}, {"measurement": "% cells CPEP+ in pancospheres", "setting": "[2]; carrier control 1.0±0.3", "result": "2.9%±0.4"}]}, {"molecule": "D114: Notch ligand Delta-like ligand 4 (R&D Systems)", "values": [{"measurement": "% of NGN3+ cells, percent of carrier control", "setting": "[1]; 500 ng/ml, data not shown", "result": "60.1%±11.4"}]}, {"molecule": "EGF: EGF receptor ligand added to culture (NSDSECPLSHDGYCLHDGVCMYIEALDKYACNCVVGYIGERCQYRDLKWWELR; Epidermal growth factor; UniProt P01133 971-1023, looked up)", "values": [{"measurement": "change of % NGN3+ cells", "setting": "[1]; addition of EGF 20 ng/ml", "result": "failed to significantly change"}]}, {"molecule": "JAG-1 peptide: 17-residue polypeptide corresponding to amino acids 188-204 of the Jagged-1 Notch ligand (DDYYYGFGCNKFCRPRD; UniProt P78504 188-204, looked up, fragment)", "values": [{"measurement": "% of cells expressing NGN3 protein, % of cells treated with scrambled peptide (SJAG)", "setting": "[1]; 47 μM, 4 days", "result": "39.0%±6.5"}]}, {"molecule": "TGFα: EGF receptor ligand added to culture", "values": [{"measurement": "change of % NGN3+ cells", "setting": "[1]; addition of TGFα 40 ng/ml", "result": "failed to significantly change"}]}]}
